These results are taken from ChEMBL document CHEMBL1914418, “Biochemical and pharmacological profiling of the pro-survival protein Bcl-xL” (Bioorg Med Chem Lett, 2011).

For assay [1], the target named is Bcl-2-like protein 1 (Homo sapiens, UniProt Q07817, L130V). Kind of assay: Displacement of BODIPY-Bak conjugated peptide from GST-tagged human Bcl-2-like protein 1 L130V mutant expressed in Escherichia coli BL21 cells at 10 uM after 3 hrs by fluorescence polarization competition assay. A general note: In fluorescence polarisation assays a small probe gives low polarisation when free and higher when bound to something large.

The target in assay [2] is Induced myeloid leukemia cell differentiation protein Mcl-1 homolog (Mus musculus, UniProt P97287). Kind of assay: Displacement of BODIPY-Bak conjugated peptide from GST-tagged mouse wild type MCL1 expressed in Escherichia coli BL21 cells at 10 uM after 3 hrs by fluorescence polarization competition assay.
For assay [3], the target named is Bcl-2-like protein 1 (Homo sapiens, UniProt Q07817, L130G). Put plainly: Displacement of BODIPY-Bak conjugated peptide from GST-tagged human Bcl-2-like protein 1 L130G mutant expressed in Escherichia coli BL21 cells at 10 uM after 3 hrs by fluorescence polarization competition assay.
The target in assay [4] is Bcl-2-like protein 1 (Homo sapiens, UniProt Q07817). Kind of assay: Displacement of BODIPY-Bak conjugated peptide from GST-tagged human Wild type Bcl-2-like protein 1 expressed in Escherichia coli BL21 cells at 10 uM after 3 hrs by fluorescence polarization competition assay.
In another assay the target is T1, Bcl-2-like protein 2 (Homo sapiens, UniProt Q92843).
T1 sequence (Q92843 whole entry): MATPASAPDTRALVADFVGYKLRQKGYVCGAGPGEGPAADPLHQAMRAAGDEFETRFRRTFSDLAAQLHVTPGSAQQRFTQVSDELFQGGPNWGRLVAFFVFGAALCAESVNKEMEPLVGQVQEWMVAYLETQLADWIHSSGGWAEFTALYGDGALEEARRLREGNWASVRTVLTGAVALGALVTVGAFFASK
Kind of assay: Displacement of BODIPY-Bak conjugated peptide from GST-tagged human wild type Bcl-W expressed in Escherichia coli BL21 cells at 10 uM after 3 hrs by fluorescence polarization competition assay.

Chain of Bcl-2-like protein 1 (Homo sapiens, UniProt Q07817) (Q07817 whole entry): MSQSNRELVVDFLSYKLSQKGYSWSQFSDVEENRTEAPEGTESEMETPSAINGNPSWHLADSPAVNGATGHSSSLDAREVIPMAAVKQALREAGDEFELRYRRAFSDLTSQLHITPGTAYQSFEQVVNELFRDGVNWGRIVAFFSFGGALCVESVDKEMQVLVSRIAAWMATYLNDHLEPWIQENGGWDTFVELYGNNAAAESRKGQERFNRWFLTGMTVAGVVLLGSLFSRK
Chain of Bcl-2-like protein 1 (Homo sapiens, UniProt Q07817, L130G) (Q07817 whole entry L130G): as the sequence (Q07817 whole entry) above, with L130G counted along it
Chain of Induced myeloid leukemia cell differentiation protein Mcl-1 homolog (P97287 whole entry): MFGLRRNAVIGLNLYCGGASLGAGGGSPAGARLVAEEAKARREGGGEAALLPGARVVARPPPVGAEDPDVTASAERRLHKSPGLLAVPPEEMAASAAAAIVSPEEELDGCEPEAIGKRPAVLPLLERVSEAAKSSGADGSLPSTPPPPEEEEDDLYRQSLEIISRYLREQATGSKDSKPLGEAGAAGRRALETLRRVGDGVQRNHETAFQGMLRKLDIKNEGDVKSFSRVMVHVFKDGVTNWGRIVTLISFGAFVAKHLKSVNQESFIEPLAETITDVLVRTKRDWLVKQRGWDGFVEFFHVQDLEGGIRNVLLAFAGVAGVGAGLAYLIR
Chain of Bcl-2-like protein 1 (Homo sapiens, UniProt Q07817, L130V) (Q07817 whole entry L130V): as the sequence (Q07817 whole entry) above, with L130V counted along it

Consider `C[C@@H]1CN(c2ccc(C(=O)NS(=O)(=O)c3ccc(N[C@H](CCN(C)C)CSc4ccccc4)c([N+](=O)[O-])c3)cc2)CCN1Cc1ccccc1C(F)(F)F`, for which the Ki (in general, the equilibrium dissociation constant of an inhibitor or competing ligand from its target) on Bcl-2-like protein 1 [1] stood at 3.7 nM; in assay [2] it was 1500 nM; on Bcl-2-like protein 1 [3] it was 81 nM; at Bcl-2-like protein 1 [4] it was 1 nM; at Bcl-2-like protein 2, 55 nM.

As for `CC(C)[C@@H]1CN(Cc2ccccc2C(F)(F)F)CCN1c1ccc(C(=O)NS(=O)(=O)c2ccc(N[C@H](CCN(C)C)CSc3ccccc3)c([N+](=O)[O-])c2)cc1`, the Ki on Bcl-2-like protein 1 [1] is 42 nM; in assay [2] it was 2000 nM; on Bcl-2-like protein 1 [3] it was 280 nM; at Bcl-2-like protein 1 [4], 2.6 nM; on Bcl-2-like protein 2, 21 nM.

With `CN(C)CC[C@H](CSc1ccccc1)Nc1ccc(S(=O)(=O)NC(=O)c2ccc(N3CCN(Cc4ccccc4C(F)(F)F)CC3)cc2)cc1[N+](=O)[O-]`, the inhibition constant (Ki) is 11 nM on Bcl-2-like protein 1 [1]; greater than 10000 nM in assay [2]; 200 nM at Bcl-2-like protein 1 [3]; 3.5 nM on Bcl-2-like protein 1 [4]; 49 nM at Bcl-2-like protein 2.

Turning to `CC(C)[C@H]1CN(Cc2ccccc2C(F)(F)F)CCN1c1ccc(C(=O)NS(=O)(=O)c2ccc(N[C@H](CCN(C)C)CSc3ccccc3)c([N+](=O)[O-])c2)cc1`, the Ki stood at 63 nM at Bcl-2-like protein 1 [1]; 2000 nM in assay [2]; 83 nM at Bcl-2-like protein 1 [3]; 3.3 nM on Bcl-2-like protein 1 [4]; 59 nM at Bcl-2-like protein 2.

As for `CC1CN(c2ccc(C(=O)NS(=O)(=O)c3ccc(N[C@H](CCN(C)C)CSc4ccccc4)c([N+](=O)[O-])c3)cc2)CC(C)N1Cc1ccccc1C(F)(F)F` (stereo not given in full), the Ki at Bcl-2-like protein 1 [1] is 96 nM; in assay [2] it was greater than 10000 nM; on Bcl-2-like protein 1 [3], 140 nM; at Bcl-2-like protein 1 [4], 68 nM; at Bcl-2-like protein 2 it was 170 nM.

As to `C[C@H]1CN(c2ccc(C(=O)NS(=O)(=O)c3ccc(N[C@H](CCN(C)C)CSc4ccccc4)c([N+](=O)[O-])c3)cc2)CCN1Cc1ccccc1C(F)(F)F`, the inhibition constant (Ki) on Bcl-2-like protein 1 [1] is less than 1 nM; in assay [2] it was 2000 nM; on Bcl-2-like protein 1 [3], 99 nM; on Bcl-2-like protein 1 [4] it was less than 1 nM; at Bcl-2-like protein 2, 63 nM.
